molecular target: Cyclin-dependent kinase 2/cyclin E1 (Homo sapiens) (UniProt P24864+P24941); assay: Inhibition of C-terminal Avi-tagged CDK2/Cyclin E1 (unknown origin) extracted from Escherichia coli assessed as reduction in RB1 phosphorylation at S780 residue incubated for 60 mins in the presence of ATP by TR-FRET assay; assay type: protein-complex assay

SMILES | INH
O=C1N([C@@H]2CCC[C@@H](O)C2)c2nc(Nc3c[nH]nc3-c3cnn4cccnc34)ncc2C12CC2 | 0.006 µM
O=C1N([C@@H]2CCC[C@@H](O)C2)c2nc(Nc3c[nH]nc3O[C@@H]3CC3(F)F)ncc2C12CC2 | 0.006 µM
O=C1N([C@@H]2CCC[C@@H](O)C2)c2nc(Nc3c[nH]nc3[C@H]3CC3(F)F)ncc2C12CC2 | 0.006 µM
O=C1N([C@@H]2CCC[C@@H](O)C2)c2nc(Nc3c[nH]nc3O[C@H]3CC3(F)F)ncc2C12CC2 | 0.006 µM
O=C1N([C@@H]2CCC[C@@H](O)C2)c2nc(Nc3c[nH]nc3OCC(F)F)ncc2C12CC2 | 0.005 µM
O=C1N([C@@H]2CCC[C@@H](O)C2)c2nc(Nc3c[nH]nc3C(F)F)ncc2C12CC2 | 0.007 µM

Reference: ChEMBL document CHEMBL6121025, “Novel Compounds as CDK2 Inhibitors for Treating Cancer” (ACS Med Chem Lett, 2025)
